Measurements taken from PubChem BioAssay (NCI).
Several values for one entry are separate records, joined by “and”; a condition that tells them apart may be missing. Equal entries are not always repeated.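 Five compound concentrations were applied to cells in 96-well plates for 48 hours; endpoints were derived by simple linear interpolation of the resulting dose-response curve. GI50 is the concentration that inhibits growth by half. TGI: concentration producing complete growth inhibition.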

Legend:
Test in all cases: inhibition of tumour cell growth, NCI panel, 48 h
A498 renal = test system: A498 renal
ACHN renal = test system: ACHN renal
EKVX NSCLC = test system: EKVX NSCLC
MCF7 breast = test system: MCF7 breast
MDA-MB-231 breast = test system: MDA-MB-231 breast
OVCAR-3 ovarian = test system: OVCAR-3 ovarian
OVCAR-4 ovarian = test system: OVCAR-4 ovarian
SF-295 CNS = test system: SF-295 CNS
SK-MEL-2 melanoma = test system: SK-MEL-2 melanoma
SK-OV-3 ovarian = test system: SK-OV-3 ovarian

SMILES	GI50 (A498 renal)	TGI (A498 renal)	GI50 (ACHN renal)	TGI (ACHN renal)	GI50 (EKVX NSCLC)	TGI (EKVX NSCLC)	GI50 (MCF7 breast)	TGI (MCF7 breast)	GI50 (MDA-MB-231 breast)	TGI (MDA-MB-231 breast)	GI50 (OVCAR-3 ovarian)	TGI (OVCAR-3 ovarian)	GI50 (OVCAR-4 ovarian)	TGI (OVCAR-4 ovarian)	GI50 (SF-295 CNS)	TGI (SF-295 CNS)	GI50 (SK-MEL-2 melanoma)	TGI (SK-MEL-2 melanoma)	GI50 (SK-OV-3 ovarian)	TGI (SK-OV-3 ovarian)
CCOC(=O)Cc1csc(Nc2nc(O)c(C3=c4ccccc4=NC3=O)s2)n1	31.6 µM	77.7 µM	23 µM	47.3 µM	77.6 µM	> 100 µM	85.5 µM	> 100 µM	29.1 µM	72.1 µM	26.9 µM	61.5 µM	42.3 µM	> 100 µM	32.1 µM	75.3 µM	25.7 µM	> 100 µM	31.1 µM	67.6 µM
CO[C@@H]1[C@H](N(C)C(=O)c2ccccc2)C[C@@H]2O[C@]1(C)n1c3ccccc3c3c4c(c5c6ccccc6n2c5c31)C(=O)NC4=O	0.206 µM	0.661 µM	0.838 µM	> 100 µM	0.858 µM	> 100 µM	1.84 µM	> 100 µM	0.48 µM	> 100 µM	6.28 µM	> 100 µM	0.7 µM	> 100 µM	1.45 µM	> 100 µM			1.67 µM	> 100 µM
O=C(O)c1cc(C(=O)C(=O)c2cc(C(=O)O)c(O)c3ccccc23)c2ccccc2c1O		> 100 µM		> 100 µM		> 100 µM		> 100 µM		> 100 µM		> 100 µM		> 100 µM		> 100 µM		> 100 µM		> 100 µM
Fc1ccc(-c2nn3c(COc4ccccc4Cl)nnc3s2)cc1Oc1ccccc1	67.6 µM	> 100 µM	25 µM	65.3 µM	49 µM	> 100 µM	52.5 µM	> 100 µM	17.8 µM	45.6 µM	22.5 µM	52.5 µM	72.2 µM	> 100 µM	18.9 µM	50.9 µM				
COc1cccc(Nc2ncnn3ccc(CN4CC[C@@H](N)[C@H](O)C4)c23)c1	1.12 µM and 0.861 µM	4.72 µM and 3.75 µM	0.0305 µM and 0.0373 µM	6.96 µM and 7.74 µM	0.0275 µM and 0.0282 µM	> 100 µM	11.3 µM and > 4.2 µM	24.5 µM and > 8.69 µM	2.3 µM and 1.54 µM	25.9 µM and > 10 µM	3.92 µM and 1.63 µM	> 60.8 µM	13.3 µM and > 5.11 µM	55.4 µM and > 10 µM	12.2 µM and > 5.6 µM	45.5 µM and > 10 µM	19.9 µM and > 4.7 µM	39.8 µM and > 7.19 µM	0.0386 µM and 0.0322 µM	0.772 µM and 0.129 µM
N#C/C(=C\c1ccc([N+](=O)[O-])cc1)n1nnc2cc(F)c(F)cc21	1.9 µM	3.71 µM	1.74 µM	3.11 µM	1.7 µM	3.56 µM	1.29 µM	3.4 µM	1.97 µM	4.84 µM	1.85 µM	3.58 µM	1.46 µM	2.86 µM	2.08 µM	5.29 µM	2.32 µM	5.58 µM	2.85 µM	11.4 µM
O=C(NCCNc1nccc(-c2c(-c3ccc(F)cc3)nc3sccn23)n1)Nc1cccc(C(F)(F)F)c1	10.7 µM	23.8 µM	4.14 µM	36.7 µM	4.69 µM	30.6 µM	3.73 µM	19.5 µM	3.28 µM	10.1 µM	17.7 µM	94.5 µM	4.74 µM	43 µM	4.28 µM	17.6 µM	3.02 µM	8.8 µM	2.67 µM	11.9 µM
